Square brackets hold non-standard residues; d marks the D form. Peptide text beside a SMILES is read from it. * marks the point of attachment. pNA = O=[N+]([O-])c1ccc(N*)cc1; Tos = Cc1ccc(S(=O)(=O)*)cc1; Pip = O=C(O)[C@@H]1CCCCN1; Nle = CCCC[C@H](N)C(=O)O; Orn = NCCC[C@H](N)C(=O)O

As usually defined, the Km is the substrate concentration at which the rate is half of its maximum. What is called kcat is the number of substrate molecules converted per active site and unit of time at saturation.

The target in experiment [1] is T1, factor Xa (Homo sapiens, UniProt P00742).
T1 construct: human factor Xa samples; gift of Dr. T. Lindhout (University of Limburg, Maastricht)
T1 sequence (P00742 41-179 limits assumed): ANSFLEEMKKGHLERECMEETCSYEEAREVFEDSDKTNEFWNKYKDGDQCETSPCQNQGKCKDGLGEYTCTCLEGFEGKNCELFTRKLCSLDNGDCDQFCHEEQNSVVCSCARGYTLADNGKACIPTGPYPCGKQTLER
T1 sequence (P00742 235-488 limits assumed): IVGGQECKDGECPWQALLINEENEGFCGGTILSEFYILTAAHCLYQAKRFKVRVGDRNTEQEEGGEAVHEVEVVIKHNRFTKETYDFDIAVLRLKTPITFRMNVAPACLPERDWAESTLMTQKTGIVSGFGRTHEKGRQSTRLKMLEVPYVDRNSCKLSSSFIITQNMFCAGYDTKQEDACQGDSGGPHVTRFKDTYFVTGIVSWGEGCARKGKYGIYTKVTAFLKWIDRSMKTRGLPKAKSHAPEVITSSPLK
In words: Kinetics of hydrolysis of substrates by human factor Xa in buffer A at 37° C. (Example 2, Table 2). The experiment is classed as biochemical. Details: key to kcat: NH: not hydrolyzed by factor Xa. How it is done: (§1) Kinetic parameters: The hydrolysis experiments were run in buffer A at 37° C. The liberation of p-nitroaniline was monitored at 405 nm in a dual wavelength (405-546 nm) spectrophotometer made in our workshop, using a personal computer for data recording. In a polystyrene microcuvette (total volume 500 μL), buffer A and substrate solution were added to obtain a final substrate concentration between 1 to 2000 μM. After 5 min of incubation at 37° C., enzyme solution was added to achieve a final concentration between 0.5 to 100 nM. The measurement was carried out at 37° C. in a thermostated cuvette-holder. The Michaelis constant (Km) and the catalytic constant (kcat) were obtained by measuring initial reaction velocities at different substrate concentrations. The data obtained were fitted by linear regression on the Michaelis-Menten equation.
(§2) Kinetic parameters: In a preliminary experiment, the substrate was hydrolyzed under the following conditions: enzyme concentration: 10 to 20 nM, substrate concentration: 200 μM in buffer A to get an impression of the initial velocity. […] The results are given in table 1 and 2 for thrombin and factor Xa respectively. The Km and kcat for each substrate were determined from the initial velocities measured for at least six substrate concentrations in the concentration range as given. The enzyme concentration used gives a good signal to noise ratio. The data given are obtained from one or two experiments. The data from table 1 and 2 were only used as the first selection criterion to get a rough impression of the hydrolysis behaviour. Notwithstanding the preliminary character of the measurement it was helpful in the design of the substrates of our interest.

Experiment [2] addresses T2, human α-thrombin (Homo sapiens, UniProt P00734).
T2 construct: Pure human α-thrombin; gift of Dr. T. Lindhout (University of Limburg, Maastricht)
Description: Kinetics of hydrolysis of substrates by human α-thrombin in buffer A at 37° C. (Example 2, Table 1). Format: biochemical. On the set-up: key to kcat: NH: not hydrolyzed by thrombin. How it is done:
as §1, §2

On to `COC(=O)CC(=O)N[C@@H](C(=O)N[C@@H](CCCNC(=N)N)C(=O)Nc1ccc([N+](=O)[O-])cc1)C(C)C.Cl` [MZ-D-Val-Arg-pNA.HCl], for which, in experiment [1], the Km stood at 1820 µM, the kcat was 0.13 s⁻¹ and the “kcat /Km” value was 69.5 M/s. In experiment [2], the Km is 1310 µM, the kcat was found to be 0.146 s⁻¹ and the “kcat /Km” value was determined as 111 M/s.

As to `COC(=O)C(C)(C)C(=O)N[C@@H](C)C(=O)N[C@@H](CCCNC(=N)N)C(=O)Nc1ccc([N+](=O)[O-])cc1.Cl` [DMMZ-Ala-Arg-pNA.HCl], in experiment [1], the Km came out at 2240 µM, the kcat came to 11.04 s⁻¹ and the “kcat /Km” value was 4930 M/s. Moreover, in experiment [2], the Michaelis constant (Km) came out at 565 µM, the kcat was determined as 4.08 s⁻¹ and the “kcat /Km” value is 7220 M/s.

With `Cl.N=C(N)NCCC[C@H](NC(=O)CNS(=O)(=O)c1ccc2ccccc2c1)C(=O)Nc1ccc([N+](=O)[O-])cc1` [βNS-Gly-Arg-pNA.HCl], in experiment [1], the Km was 116 µM, the kcat is 2.00 s⁻¹ and the “kcat /Km” value came out at 17300 M/s. In experiment [2], the kcat entry was “NH”.

`CCCC[C@H](NC(=O)[C@@H]1CCCN1C(=O)[C@H](N)Cc1ccccc1)C(=O)Nc1ccc([N+](=O)[O-])cc1.Cl` [HCl.H-D-Phe-Pro-Nle-pNA] (H-[dF]-Pro-[Nle]-pNA): in experiment [2], the Michaelis-Menten constant (Km) was 87.9 µM, the kcat was 6.66 s⁻¹ and the “kcat /Km” value amounted to 75400 M/s.

Turning to `COC(=O)C(C)C(=O)NC(C)C(=O)NC(CCCNC(=N)N)C(=O)Nc1ccc([N+](=O)[O-])cc1.Cl` (mixture of isomers) [MMZ-Ala-Arg-pNA.HCl], in experiment [1], the Km was 7050 µM, the kcat stood at 40.6 s⁻¹ and the “kcat /Km” value amounted to 5750 M/s. Further, in experiment [2], the Km was 666 µM, the kcat was 16.5 s⁻¹ and the “kcat /Km” value was 24800 M/s.

Take `CC(C)[C@@H](N)C(=O)N[C@@H](CCCNC(=N)N)C(=O)Nc1ccc([N+](=O)[O-])cc1.Cl.Cl` [2HCl.H-D-Val-Arg-pNA] (H-[dV]-Arg-pNA): in experiment [2], the Km was 4250 µM, the kcat came to 0.28 s⁻¹ and the “kcat /Km” value came out at 65.9 M/s.

Take `COC(=O)C(C)(C)C(=O)NCC(=O)N[C@@H](CCCNC(=N)N)C(=O)Nc1ccc([N+](=O)[O-])cc1.Cl` [DMMZ-Gly-Arg-pNA.HCl]: in experiment [1], the Km was 2840 µM, the kcat worked out at 13.6 s⁻¹ and the “kcat /Km” value was determined as 4790 M/s. Moreover, in experiment [2], the Km was 902 µM, the kcat was found to be 6.44 s⁻¹ and the “kcat /Km” value was 7140 M/s.

Regarding `COC(=O)CC(=O)N[C@H](C)C(=O)N[C@@H](CCCNC(=N)N)C(=O)Nc1ccc([N+](=O)[O-])cc1.Cl` [MZ-D-Ala-Arg-pNA.HCl], in experiment [1], the Km was 3080 µM, the kcat came to 0.088 s⁻¹ and the “kcat /Km” value is 28.5 M/s. Besides, in experiment [2], the Km stood at 1330 µM, the kcat was 0.059 s⁻¹ and the “kcat /Km” value turned out to be 44.4 M/s.

In the case of `CCCC[C@H](NC(=O)[C@@H]1CCCCN1C(=O)[C@H](N)Cc1ccccc1)C(=O)Nc1ccc([N+](=O)[O-])cc1.Cl` [HCl.H-D-Phe-Pip-Nle-pNA] (H-[dF]-[Pip]-[Nle]-pNA), the kcat result in experiment [1] was “NH”. Also, in experiment [2], the Km came out at 943 µM, the kcat was 11.4 s⁻¹ and the “kcat /Km” value came out at 12100 M/s.

`Cl.Cl.N=C(N)NCCC[C@H](NC(=O)[C@@H]1CCCN1C(=O)[C@H](N)Cc1ccccc1)C(=O)Nc1ccc([N+](=O)[O-])cc1` [2HCl.H-D-Phe-Pro-Arg-pNA]: in experiment [1], the Km is 693 µM, the turnover number (kcat) came out at 18.7 s⁻¹ and the “kcat /Km” value amounted to 26900 M/s. Moreover, in experiment [2], the Km came to 3.16 µM, the kcat is 28.4 s⁻¹ and the “kcat /Km” value was 8.99e+06 M/s.

With `C[C@@H](N)C(=O)N[C@@H](CCCNC(=N)N)C(=O)Nc1ccc([N+](=O)[O-])cc1.Cl.Cl` [2HCl.H-D-Ala-Arg-pNA] (H-[dA]-Arg-pNA), in experiment [2], the Km is 4080 µM, the kcat amounted to 0.096 s⁻¹ and the “kcat /Km” value amounted to 23.5 M/s.

Regarding `COC(=O)C(C)C(=O)NCC(=O)NC(CCCNC(=N)N)C(=O)Nc1ccc([N+](=O)[O-])cc1.Cl` (mixture of isomers) [MMZ-Gly-Arg-pNA.HCl], in experiment [1], the Km is 6400 µM, the kcat stood at 43.9 s⁻¹ and the “kcat /Km” value was found to be 6860 M/s. Moreover, in experiment [2], the Km turned out to be 1740 µM, the turnover number (kcat) amounted to 6.60 s⁻¹ and the “kcat /Km” value was determined as 3800 M/s.

Turning to `Cl.N[C@H](Cc1ccccc1)C(=O)N1CCCC[C@H]1C(=O)N[C@@H](CCC(=O)O)C(=O)Nc1ccc([N+](=O)[O-])cc1` [HCl.H-D-Phe-Pip-Glu-pNA] (H-[dF]-[Pip]-Glu-pNA), the kcat result in experiment [1] was “NH”. Besides, in experiment [2], the Km was 474 µM, the kcat was determined as 0.35 s⁻¹ and the “kcat /Km” value is 739 M/s.

Consider `C[C@H](N)C(=O)N[C@@H](CCCNC(=N)N)C(=O)Nc1ccc([N+](=O)[O-])cc1.Cl.Cl` [2HCl.H-Ala-Arg-pNA] (H-Ala-Arg-pNA), for which, in experiment [2], the Km amounted to 1140 µM, the kcat was found to be 0.074 s⁻¹ and the “kcat /Km” value came out at 64.9 M/s.

As for `Cl.Cl.NCCCC[C@H](NC(=O)[C@@H]1CCCCN1C(=O)[C@H](N)Cc1ccccc1)C(=O)Nc1ccc([N+](=O)[O-])cc1` [2HCl.H-D-Phe-Pip-Lys-pNA] (H-[dF]-[Pip]-Lys-pNA), in experiment [1], the Km is 963 µM, the kcat is 0.61 s⁻¹ and the “kcat /Km” value stood at 631 M/s. In experiment [2], the Km came to 65.1 µM, the kcat came to 118.3 s⁻¹ and the “kcat /Km” value came to 1.82e+06 M/s.

As to `Cc1ccc(S(=O)(=O)NCC(=O)N[C@@H](CCCNC(=N)N)C(=O)Nc2ccc([N+](=O)[O-])cc2)cc1.Cl` [pTS-Gly-Arg-pNA.HCl] (Tos-Gly-Arg-pNA), in experiment [1], the Michaelis-Menten constant (Km) was determined as 233 µM, the kcat came out at 9.26 s⁻¹ and the “kcat /Km” value came out at 39800 M/s. Besides, in experiment [2], the kcat result is reported as “NH”.

With `NC(N)=NCCC[C@H](NC(=O)[C@@H]1CCCCN1C(=O)[C@H](N)Cc1ccccc1)C(=O)Nc1ccc([N+](=O)[O-])cc1` [2HCl.H-D-Phe-Pip-Arg-pNA], in experiment [1], the Km worked out at 174 µM, the kcat stood at 7.49 s⁻¹ and the “kcat /Km” value worked out at 42900 M/s. Besides, in experiment [2], the Km amounted to 5.62 µM, the kcat was 236.5 s⁻¹ and the “kcat /Km” value was 4.21e+07 M/s.

In the case of `COc1ccc(COC(=O)NCC(=O)N[C@@H](CCCNC(=N)N)C(=O)Nc2ccc([N+](=O)[O-])cc2)cc1.Cl` [MZ-Gly-Arg-pNA.HCl], in experiment [1], the Km worked out at 4700 µM, the kcat is 55.0 s⁻¹ and the “kcat /Km” value is 11700 M/s. Besides, in experiment [2], the Michaelis-Menten constant (Km) was found to be 2540 µM, the turnover number (kcat) came out at 12.3 s⁻¹ and the “kcat /Km” value was 4850 M/s.

On to `Cl.Cl.NCCC[C@H](NC(=O)[C@@H]1CCCCN1C(=O)[C@H](N)Cc1ccccc1)C(=O)Nc1ccc([N+](=O)[O-])cc1` [2HCl.H-D-Phe-Pip-Orn-pNA] (H-[dF]-[Pip]-[Orn]-pNA), for which, in experiment [2], the Km stood at 420 µM, the kcat amounted to 4.64 s⁻¹ and the “kcat /Km” value is 11100 M/s.

`COC(=O)CC(=O)N[C@@H](C)C(=O)N[C@@H](CCCNC(=N)N)C(=O)Nc1ccc([N+](=O)[O-])cc1.Cl` [MZ-Ala-Arg-pNA.HCl]: in experiment [1], the Km amounted to 5590 µM, the kcat is 51.7 s⁻¹ and the “kcat /Km” value was determined as 9250 M/s. In experiment [2], the Km amounted to 1540 µM, the kcat was determined as 107.5 s⁻¹ and the “kcat /Km” value stood at 69900 M/s.

With `Cl.Cl.NCC(=O)N[C@@H](CCCN=C(N)N)C(=O)Nc1ccc([N+](=O)[O-])cc1` [2HCl.H-Gly-Arg-pNA] (H-Gly-Arg-pNA), in experiment [2], the Km was determined as 2280 µM, the kcat was found to be 0.107 s⁻¹ and the “kcat /Km” value worked out at 46.9 M/s.

For `CCC(CC)(C(=O)NCC(=O)N[C@@H](CCCNC(=N)N)C(=O)Nc1ccc([N+](=O)[O-])cc1)C(=O)OC.Cl` [DEMZ-Gly-Arg-pNA.HCl], in experiment [1], the Km stood at 2320 µM, the kcat is 4.54 s⁻¹ and the “kcat /Km” value came out at 1960 M/s. Also, in experiment [2], the Km amounted to 866 µM, the kcat was determined as 1.73 s⁻¹ and the “kcat /Km” value turned out to be 1990 M/s.

Source of the values: patent US6207399A, “Methods of determining endogenous thrombin potential (ETP) and thrombin substrates for use in said methods” (Hemker; Hendrik Coenraad, priority 1995, dated 2001).
